{"source": "patent US20110207655A1", "about": "“CYCLIC DEPSIPEPTIDE COMPOUND AND USE THEREOF” (Astellas Pharma Inc., priority 2008, published 2011)", "key": {"[1]": {"tested_on": "tobacco smoke inhalation-induced airway inflammation", "experiment": "Action of nasal drop administration on the tobacco smoke inhalation-induced airway inflammation", "format": "in vivo, BALB/c male mice", "conditions": "mice, nasal drop 1, 10 and 100 μg/kg once a day; bronchoalveolar lavage cell count at Day 11", "method": "BALB/c male mice (Charles River Laboratories Japan, Inc.) were used in experiments. Sodium pentobarbital (40 mg/kg) was administered intraperitoneally to the mice for anesthesia. During a period of time ranging from Day 0 to Day 10 (except for Days 5 and 6), the test compound (1, 10, and 100 μg/kg) were administered nasally to the mice once a day. The Vehicle group was similarly injected with physiological saline by nasal drop administration. There were 10 animals in each group. The mice were put into chambers at 1 hour after nasal drop administration, and using a tobacco smoke generator (SG-200, Sibata Scientific Technology Ltd.), the tobacco smoke was inhaled to a concentration in air up to 4% for 1 hour. After intraperitoneal administration of sodium pentobarbital (80 mg/kg) to the mice at Day 11, the mice were subject to blood removal to be euthanized. After respiratory arrest, the trachea was incised, bronchoalveolar lavage was performed with PBS(−) 0.5 mL×3 times, and the washing liquid was collected. The supernatant was removed by centrifugation, the cells were then resuspended in PBS(−), and for white blood cells (WBC), neutrophils (NEUT), lymphocytes (LYMPH), macrophages (MONO), and eosinophils (EO), the cell count was measured with a Multiple Parameter Automatic Hematology Analyzer (XT-2000i, Sysmex Corporation)."}, "[2]": {"tested_on": "human platelet aggregation caused by ADP", "conditions": "Patent Citation 1, Non-Patent Citation 1; cited from earlier work"}, "Gq and G11": {"tested_on": "Gq and G11", "conditions": "Non-Patent Citation 3; cited from earlier work"}, "[3]": {"tested_on": "ADP receptors (P2Y1, P2Y2)", "conditions": "in-vitro tests, Non-Patent Citation 3; cited from earlier work"}, "[4]": {"tested_on": "muscarinic receptors (M1)", "conditions": "in-vitro tests, Non-Patent Citation 3; cited from earlier work"}, "Gq/11": {"tested_on": "Gq/11", "experiment": "Inhibitory action on Gq/11: LTD4-induced cellular Ca2+ change in CHO cells stably expressing CysLTR2 (FLIPR)", "format": "cell-based", "conditions": "read-out: Gq/11 inhibitory activities (IC50 values), 10 nM LTD4, maximum Fluo-4 fluorescence intensity", "method": "The test was carried out according to the method of Non-Patent Citation 3, using a leukotriene receptor CysLTR2 (cysteinyl leukotriene receptor 2), which is known to activate Gq/11. CHO cells stably expressing CysLTR2 were seeded on a 96-well black/clear bottom plate (manufactured by Becton, Dickinson and Company) at 20,000 cells per well, and after 24 hours of seeding, the medium was discarded. Then, Hanks BSS (GIBCO Inc.) including 2 μM Fluo-4, AM (manufactured by Molecular Probe Co.), 0.004% pluronic acid, 1% FBS, 20 mM HEPES, and 2.5 mM probenecid was added thereto at 100 μL per well, followed by incubation at 37° C. for 1 hour. After incubation, the resultant was washed four times with Hanks BSS including 20 mM HEPES, and Hanks BSS including 20 mm HEPES per well was added thereto 100 μL per well. In addition, 50 μL of a test compound that had been diluted with Hanks BSS including 20 mM HEPES to a final concentration from 1×10^−10 M to 1×10^−5 M was added thereto, followed by being left to stand at room temperature for 30 minutes. The change of cellular Ca^2+ concentration after addition of leukotriene D4 (LTD4, manufactured by Cayman Co.), which is a CysLTR2 ligand, was measured over time using an FLIPR (Molecular Device Corp.). 50 μL it of leukotriene D4 that had been diluted with Hanks BSS including 20 mM HEPES to a final concentration of 10 nM at 10 seconds after the initiation of measurement was added thereto, fluorescence intensities were measured every second for 50 seconds and every sixth second for 2 minutes, and a maximum fluorescence intensity during a measurement time of 3 minutes was observed. By plotting the concentrations and the fluorescence intensities of the test compounds, the IC50 values were calculated, which were taken as Gq/11 inhibitory activities."}, "G15 and G16": {"tested_on": "G15 and G16", "conditions": "Non-Patent Citation 3; cited from earlier work"}, "carotid artery pressure": {"tested_on": "carotid artery pressure", "experiment": "Action on the carotid pressure by intratracheal administration", "format": "in vivo, SD male rats", "conditions": "rats", "method": "SD male rats (Charles River Laboratories Japan, Inc.) were used in experiments. Urethane (1.2 g/kg) was administered intraperitoneally to the rats for anesthesia. Cannulation for […] was carried out in the carotid artery and a pressure transducer (TP-400T, Nihon Kohden Corporation) was connected. The cannula for measuring blood pressure and a pressure transducer were filled with 5% heparin physiological saline. The pressure signal was amplified with a strain pressure amplifier (AP-601G, Nihon Kohden Corporation) and recorded on chart paper by a thermal pen recorder (WT-685G, Nihon Kohden Corporation). The body temperature of the rats was maintained at 37° C. using a body temperature-maintaining device (BWT-100, Bio Research Center). The trachea was exposed, and using needles (27 G), the test compounds (30 or 100 μg/kg) at a volume of 0.5 mL/kg or physiological saline was administered by direct intratracheal injection. For the group administered with 30 μg/kg, 5 animals were used, for the group administered with 100 μg/kg, 1 animal was used, and for the group administered with physiological saline, 3 animals were used. For 30 minutes after intratracheal administration, a mean blood pressure was measured."}, "[5]": {"conditions": "intratracheal 100 μg/kg, 1 animal"}}, "note": "Starred links: 1 amine or outer side, 2 acyl side, 3 side chain; linkers in the order of their positions; H or OH if unused. Positions of bridges follow the written chain, without caps; N, C: chain ends. Non-standard residues stand in square brackets, D forms with d. Residues, ends and D or L forms follow the SMILES beside them. Leu(3R-O(AcLeu(3R-OH))) = CC(=O)N[C@H](C(=O)O[C@H](C(C)C)[C@H](N)C(=O)O)[C@H](O)C(C)C; X1 = CO[C@H](C)C(C(=O)[*:2])N(C)[*:1]; dPhLac = O=C(O)[C@H](O)Cc1ccccc1; NMeA = CN[C@@H](C)C(=O)O; NMeDha = C=C(NC)C(=O)O"}
{"molecule": "C=C1C(=O)N[C@@H](C)C(=O)N(C)[C@@H](C)C(=O)N[C@@H]([C@H](OC(=O)[C@@H](NC(C)=O)[C@H](O)C(C)C)C(C)C)C(=O)N(C)C([C@@H](C)OC)C(=O)O[C@H](C)[C@H](NC(C)=O)C(=O)O[C@H](Cc2ccccc2)C(=O)N1C", "note": "(stereo partly drawn) [Ref 1] (Ac-T[dPhLac][NMeDha]A[NMeA][Leu(3R-O(AcLeu(3R-OH)))][X1]; ester 1-C)", "values": [{"measurement": "infiltration of eosinophils into the airway", "setting": "[1]", "value": "significantly inhibited"}, {"measurement": "infiltration of lymphocytes into the airway", "setting": "[1]", "value": "significantly inhibited"}, {"measurement": "infiltration of neutrophils into the airway", "setting": "[1]", "value": "significantly inhibited"}, {"measurement": "human platelet aggregation caused by ADP", "setting": "[2]", "value": "inhibits"}, {"measurement": "inhibition of Gq and G11", "setting": "Gq and G11", "value": "strongly inhibits"}, {"measurement": "reactions of ADP receptors (P2Y1, P2Y2)", "setting": "[3]", "value": "inhibits"}, {"measurement": "reactions of muscarinic receptors (M1)", "setting": "[4]", "value": "inhibits"}, {"measurement": "IC50", "setting": "Gq/11", "value": 66, "unit": "nM"}, {"measurement": "inhibition of G15 and G16", "setting": "G15 and G16", "value": "does not inhibit"}, {"measurement": "amount having no action on the carotid artery pressure", "setting": "carotid artery pressure; intratracheal", "value": "at least 30 μg/kg"}, {"measurement": "Reduction in blood pressure After 10 min", "setting": "carotid artery pressure; intratracheal 30 μg/kg", "value": "7±5.2", "unit": "mmHg"}, {"measurement": "Reduction in blood pressure Max in 30 min", "setting": "carotid artery pressure; intratracheal 30 μg/kg", "value": "22±3.3", "unit": "mmHg"}, {"measurement": "reduction in blood pressure compared with physiological saline group", "setting": "carotid artery pressure; intratracheal 30 μg/kg", "value": "no significant difference"}, {"measurement": "reduction in blood pressure (in words)", "setting": "carotid artery pressure; intratracheal 100 μg/kg", "value": "remarkable reduction in blood pressure"}, {"measurement": "Reduction in blood pressure After 10 min", "setting": "carotid artery pressure; [5]", "value": 65, "unit": "mmHg"}, {"measurement": "Reduction in blood pressure Max in 30 min", "setting": "carotid artery pressure; [5]", "value": 95, "unit": "mmHg"}, {"measurement": "gap between maximum amount having no action on carotid artery pressure and ED50 of inhibitory action on airway contraction", "setting": "carotid artery pressure; intratracheal, 30 μg/kg vs 0.73 μg/kg", "value": "at least 40 times"}]}
